1 compound from patent publication US20260248762A1, “RRX-001 FOR […]-INFARCT ADVERSE V[…] COMPLICATIONS” (EpicentRx, Inc., priority 2022, published 2026) can be followed below.

Series [1] has as its system Male Wistar rats. The experiment in a line: Acute changes in heart rate during reperfusion, rat myocardial ischemia reperfusion. It is filed as in vivo. Particulars: infusion of RRx-001, i.v. in DMSO; in sham animals or relative to animals with I/R; FIG. 1. As to the method: (§1) Animal experiments were performed in accordance with protocols approved. Male Wistar rats or subjects (about 8-9 weeks old) were purchased from Charles River (San Diego, California) and allowed about 1 week to acclimatize to the new environment prior to random allocation into four groups (n=8 per group). The groups included: a first group 106 (sham), a second group 108 (RRx-001), a third group 110 (RRx-001 I/R), and a fourth group 112 (I/R).
The first group 106 included sham subjects (e.g., no treatment). The subjects of the second group 108 were given about 5 mg/kg of RRx-001 prepared in dimethyl sulfoxide (DMSO) and administered to the subjects via intravenous administration. The subjects of the second group 108 were not subjected to ischemia. […]
(§2) Regarding the myocardial ischemia reperfusion, the subjects were anesthetized with isoflurane (5% induction and 2% maintenance in 30% oxygen) and placed on a thermal heating pad. […] The knot was removed, the chest was closed, and the hearts of the subjects were monitored for a time period of one hour during reperfusion. […]
FIG. 1 depicts a graph comparing acute changes in heart rate (HR) during reperfusion for various groups of Example 1, according to at least some embodiments disclosed herein. FIG. 1 includes an x-axis 102 associated with time (measured in minutes) and a y-axis 104 associated with HR (measured in beats per minute or “bpm”).

In series [2] the test system is Male Wistar rats. Briefly: Hypotensive effects after RRx-001 treatment. The settings on record: treatment after reperfused MI. In kind it is in vivo, rat. Here is the method: as §1
The first group 106 included sham subjects (e.g., no treatment). The subjects of the second group 108 were given about 5 mg/kg of RRx-001 prepared in dimethyl sulfoxide (DMSO) and administered to the subjects via intravenous administration. The subjects of the second group 108 were not subjected to ischemia. The subjects of the third group 110 were administered about 0.5 mg/kg of RRx-001 prepared in DMSO via intravenous administration during reperfusion after ischemia. The subjects of the fourth group 112 were untreated, but subjected to ischemia and reperfusion. […]
as §2

The structures appear in SMILES notation.

For `O=C(CBr)N1CC([N+](=O)[O-])([N+](=O)[O-])C1` [RRx-001, 2-bromo-1-(3,3-dinitroazetidin-1-yl)ethan-1-one], in the series with Male Wistar rats [1], the “acute changes in heart rate (HR) during reperfusion” value is recorded as “did not result in any acute changes in HR”. In the series with Male Wistar rats [2], the hypotensive effects result was “No hypotensive effects were observed”.
